Test results reported in patent publication US20240043527A1 (BioNTech SE, priority 2020, published 2024).

How the values were obtained:
[1] = tested on: pancreatic cancer cell lines; settings: cited from earlier work; for de novo CLDN-18.2 expression: CLDN-18.2-negative cell lines; for CLDN-18.2 expression levels: pancreatic cancer cell lines with existing expression
[2] = Apparent pKa of the amino lipid; format: physicochemical
[3] = tested on: locally advanced, unresectable or metastatic pancreatic cancer; settings: erlotinib versus placebo; cited from earlier work
advanced BTC = settings: first-line treatment of advanced disease; cited from earlier work
PDAC = settings: metastasized stage; Conroy et al. 2011; cited from earlier work
MDA-MB-231 cells = experiment: Ex vivo ADCC assay with serum of dosed non-human primates, target-negative control cells; format: cell-based; settings: FIG. 5 Panel C dilution row
Method: (§1) Non-Human Primates (NHP) received three repetitive doses of 0.1, 0.4 or 1.6 mg/kg RB_RMAB01 once weekly. RiboMab01-containing serum of all monkeys sampled 24 hours (black bars) and 168 hours (white bars) post 1st injection was directed to luciferase-based ex vivo ADCC assays. […] Human PBMCs from two different healthy donors (24 h, donor 1, 168 h, donor 2) served as effector cells. (Panel A) RiboMab01-mediated ADCC of NUG-C4 cells after 48 hours incubation is shown. (Panel B) Unspecific lysis on target-negative MDA-MB-231 cells is shown. Error bars are standard error of the mean (n=3). (Panel C) Serum of NHP No. 14 (1.6 mg/kg RB_RMAB01, RiboMab01 serum concentration 232 μg/mL) collected 48 hours after the 3rd dosing was used for a luciferase-based ex vivo ADCC assays. […] Human PBMCs of a healthy donor served as effector cells. […] Incubation time was 48 hours. Error bars are standard errors of the mean (n=3).
(§2) ADCC assays were performed as described in Example 2. […] Purified IMAB362 served as assay reference protein.

CLDN-18.2+ cells = settings: in serum; Sahin et al. 2018; cited from earlier work
[4] = tested on: CLDN-18.2+ NUG-C4 transfectants; experiment: Ex vivo ADCC assay with serum of dosed non-human primates; format: cell-based; settings: serum of monkey No. 14 (1.6 mg/kg) 48 hours after 3rd dosing or recombinant reference protein; 48 hours incubation
Method: as §1, §2

[5] = target: CLDN-18.2+ NUG-C4 transfectants; experiment: In vitro ADCC assay (luciferase-based); format: cell-based, human; settings: human PBMCs from three donors, E:T 30:1, 48 hours
Method: RiboMab01-containing cell culture supernatant from CHO-K1 cells lipofected with RB_RMAB01 was subjected to (Panel A) ADCC and (Panel B) CDC assays. […] Human PBMCs of three different healthy donors were utilized as effector cells (E:T ratio 30:1). Target or control and effector cells were incubated for 48 hours with the indicated RiboMab01 and IMAB362 reference protein concentrations. Specific cell lysis as determined in a luciferase-based assay is shown. […] Target and control cells were incubated with human serum and RiboMab01 concentrations as indicated for 2 hours. CDC determined in a luciferase-based assay is shown. Error bars are standard errors of the mean (n=3).
Mode of action analysis: Antibody-dependent cellular cytotoxicity (ADCC) and complement-dependent cytotoxicity (CDC) in vitro. […] To simulate in vivo conditions, human PBMCs from three different healthy donors were used as effector cells in ADCC assays in an effector to target (E:T) ratio of 30:1 and human serum (e.g., commercially available human serum) was used as a source of complement in CDC assays.

[6] = cited from earlier work
[7] = cited from earlier work; remark: listed apart in the source
[8] = target: first extracellular domain (ECD1) of CLDN-18.2 (Homo sapiens, UniProt P56856); settings: cited from earlier work
[9] = tested on: gastric and gastro-esophageal cancer; settings: cited from earlier work
[10] = ≥70% CLDN-18.2 expression subset, vs EOX, p<0.0005

In the case of `O=c1[nH]cc(F)c(=O)[nH]1` [5-fluorouracil], the “de novo CLDN-18.2 expression” value [1] is given as “not observed to increase de novo expression” and the CLDN-18.2 expression levels [1] is given as “upregulate existing CLDN-18.2 expression levels”.

`CCCCCCC(CCCC)C(=O)OCCCCCCCCCN(CCCO)CCCCCCCCCOC(=O)C(CCCC)CCCCCC` (stereo not shown) [Cationic Lipid A, ((3-Hydroxypropyl)azanediyl)bis(nonane-9,1-diyl)bis(2-butyloctanoate)] gave a pKa [2] of roughly 6.25.

In the case of `C#Cc1cccc(Nc2ncnc3cc(OCCOC)c(OCCOC)cc23)c1` [erlotinib], the “median overall survival (OS) benefit” value [3] is given as 0.4 month and the “median progression-free survival (PFS) benefit” value [3] is given as 0.3 month.

In the case of `Nc1ccn([C@@H]2O[C@H](CO)[C@@H](O)C2(F)F)c(=O)n1` [gemcitabine], the “de novo CLDN-18.2 expression” value [1] is listed as “not observed to increase de novo expression”, the CLDN-18.2 expression levels [1] is listed as “upregulate existing CLDN-18.2 expression levels” and the “median OS” value (advanced BTC) is listed as 8.1 months.

For `O=C1[O][Pt]2([NH][C@@H]3CCCC[C@H]3[NH]2)[O]C1=O` [oxaliplatin], the “de novo CLDN-18.2 expression” value [1] is given as “not observed to increase de novo expression” and the CLDN-18.2 expression levels [1] is given as “upregulate existing CLDN-18.2 expression levels”.

In the case of FOLFIRINOX, the “median survival compared to gemcitabine alone” value (PDAC) is given as “nearly double median survival”.

In the case of “IMAB362: full IgG1 monoclonal antibody targeting CLDN-18.2; used as recombinant reference protein”, the “unspecific lysis on control cells” value (MDA-MB-231 cells) is given as “weak unspecific lysis”, the “ADCC EC95 (concentration that gives 95% response)” value (CLDN-18.2+ cells) is given as 0.3 to 28 µg/mL and the EC50 [4] is given as 0.151 nM. For the same compound, the “ADCC EC50” value [5] was 0.014 to 0.265 µg/mL, the “patients with grade 3 vomiting” value ([6]; 12 patients, 600 mg/m^2 dose) was 22% and the patients with fatigue ([6]; TEAE) was 22%. For the same compound, the patients with nausea ([6]; TEAE) was 61%, the patients with vomiting ([6]; TEAE) was 50% and the “patients with grade 3 nausea” value ([6]; eight patients, 600 mg/m^2 dose) was 15%. For the same compound, the “patients with treatment emergent adverse events (TEAEs)” value ([6]; n=44/54) was 82%, the cmax ([7]; repeated doses up to 1000 mg/m^2 q3w) was “up to 603 μg/mL” and the “tolerability across various trials” value ([7]; single agent and in combination with chemotherapy) was “well tolerated”. The “binding to other claudin family members including CLDN18.1” value [8] was “does not bind”, the “recognition of ECD1 of CLDN-18.2” value [8] was “high affinity and specificity” and the “change of median overall survival” value ([9]; patients with ≥70% of tumor cells with ≥2+ CLDN-18.2 staining) was “near-doubling”. The “benefit in overall survival (OS)” value [9, 10] was 33.1 weeks and the “delay in central independent reviewed progression” value [9, 10] was 14.5 weeks.
